{
  "source": "patent US12233047B2",
  "about": "“Pharmaceutical combination and use thereof” (ASCENTAGE PHARMA (SUZHOU) CO., LTD., priority 2019, dated 2025)",
  "key": {"[1]": {"target": "T1, FLT3 (K663Q) (Homo sapiens, UniProt P36888, K663Q)", "T1 construct": "host or cells: T7 phage in E. coli (BL21-derived) or HEK-293", "T1 sequence (P36888 27-993 K663Q)": "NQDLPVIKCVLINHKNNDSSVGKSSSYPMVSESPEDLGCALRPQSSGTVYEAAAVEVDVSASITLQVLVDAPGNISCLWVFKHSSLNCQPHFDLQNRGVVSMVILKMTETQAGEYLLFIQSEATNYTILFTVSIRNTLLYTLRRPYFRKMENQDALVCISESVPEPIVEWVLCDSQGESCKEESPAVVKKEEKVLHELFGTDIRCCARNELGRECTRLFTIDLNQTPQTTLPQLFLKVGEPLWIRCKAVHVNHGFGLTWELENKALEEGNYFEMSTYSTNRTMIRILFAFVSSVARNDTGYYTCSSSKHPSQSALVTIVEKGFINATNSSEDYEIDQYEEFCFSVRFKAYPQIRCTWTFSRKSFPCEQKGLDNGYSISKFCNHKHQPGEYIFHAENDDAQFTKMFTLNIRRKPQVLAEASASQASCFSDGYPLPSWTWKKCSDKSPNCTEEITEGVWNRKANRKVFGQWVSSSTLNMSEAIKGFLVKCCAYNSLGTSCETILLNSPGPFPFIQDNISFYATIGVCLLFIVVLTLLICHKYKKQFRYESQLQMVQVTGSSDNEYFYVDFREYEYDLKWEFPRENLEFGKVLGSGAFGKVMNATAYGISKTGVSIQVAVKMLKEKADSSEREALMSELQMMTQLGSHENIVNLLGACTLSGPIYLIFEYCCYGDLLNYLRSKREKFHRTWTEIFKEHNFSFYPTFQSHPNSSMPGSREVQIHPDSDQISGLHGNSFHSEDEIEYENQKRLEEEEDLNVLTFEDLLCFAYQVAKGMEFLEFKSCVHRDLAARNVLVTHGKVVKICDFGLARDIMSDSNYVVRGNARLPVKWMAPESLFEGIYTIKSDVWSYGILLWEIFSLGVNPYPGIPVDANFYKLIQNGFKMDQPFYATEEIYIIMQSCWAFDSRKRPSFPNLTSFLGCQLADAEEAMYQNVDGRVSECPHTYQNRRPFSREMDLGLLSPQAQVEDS", "test": "KINOMEscan kinase binding assay, FLT3 (K663Q)", "protocol": "The kinase assay was conducted using KINOMEscan™.\nKinase-tagged T7 phage strains were grown in parallel in 24-well blocks in an E. coli host derived from the BL21 strain. E. coli were grown to log-phase and infected with T7 phage from a frozen stock (multiplicity of infection=0.4) and incubated with shaking at 32° C. until lysis (90-150 minutes). The lysates were centrifuged (6,000×g) and filtered (0.2 μm) to remove cell debris. The remaining kinases were produced in HEK-293 cells and subsequently tagged with DNA for qPCR detection. Streptavidin-coated magnetic beads were treated with biotinylated small molecule ligands for 30 minutes at room temperature to generate affinity resins for kinase assays. The liganded beads were blocked with excess biotin and washed with blocking buffer (SeaBlock (Pierce), 1% BSA, 0.05% Tween 20, 1 mM DTT) to remove unbound ligand and to reduce non-specific phage binding. Binding reactions were assembled by combining kinases, liganded affinity beads, and test compound (Compound 23) in 1× binding buffer (20% SeaBlock, 0.17×PBS, 0.05% Tween 20, 6 mM DTT). Test compound were prepared as 40× stocks in 100% DMSO and directly diluted into the assay. All reactions were performed in polypropylene 384-well plates in a final volume of 0.04 ml. […] The kinase concentration in the eluates was measured by qPCR. […]"}, "[2]": {"test_system": "Human AML cell line MOLM-13 (FLT3-ITD positive and wild type TP53 gene)", "test": "Human MOLM-13 AML systemic mouse xenograft model, survival", "assay_type": "in vivo", "conditions": "MOLM-13 systemic model, Compound 23 10 mg/kg, Compound C 20 mg/kg, p.o. q2d × 21 d", "protocol": "The formulation of Compound C was prepared as homogenous suspension in 0.2% HPMC using a mortar. The drug suspension was prepared every three days or once a week and placed at 4° C. when not in use. Before use, the drug suspension was placed at room temperature and shaken to mix well. The formulation of Compound C was administered to mice via p.o. in a volume of 10 mL/kg.\nThe formulation of Compound 23 was prepared in 0.2% HPMC in a mortar to generate homogenous suspension. The drug suspension was prepared once every other day and placed at 4° C. when not in use. Before use, the drug suspension was placed at room temperature and shaken well. The formulation of Compound 23 was administered to mice via p.o. in a volume of 10 mL/kg.\nMOLM-13 cell lines (Human AML cell line MOLM-13 (FLT3-ITD positive and wild type TP53 gene)) were maintained in RPMI-1640 (Cat. C11875500BT, GIBCO) with 10% fetal bovine serum (Cat. 10099-141, GIBCO), 1% L-glutamine, 100 U/mL penicillin G and 100 μg/mL streptomycin (Cat. GNM15140, Hangzhou Geno Biomedical Technology Co., Ltd). Cells were incubated at 37° C. in a humidified incubator with 5% CO2.\nSix to eight weeks old, female, NOD SCID and BALB/c nude mice were used. Animals were obtained from Vital River Laboratories (VRL, Beijing, China, license number SCXK(J) 2012-0001 and SCXK(J) 2016-0006). The body weights were 17-24 g.\nMOLM-13 systemic tumor model were established by injecting tumor cells into the tail vein (10×10^6 cells/mouse) under the sterile condition. To establish the MOLM-13 systemic model, all animals were intraperitoneally injected (i.p.) with cyclophosphamide (150 mg/kg) for two consecutive days before the inoculation of MOLM-13 cells. On the third day after cell inoculation, animals were randomized into 10 mice per group and treatment was initiated (day 1) according to Table 2.\nThe animals were euthanized when the experimental animals had symptoms such as weight loss and weight loss greater than 20%, limb paralysis, tumor metastasis to the eye causing ocular protrusion, tumor metastasis to the abdominal cavity causing abdominal enlargement. These severe health issues were considered as the same as animal death caused by tumor growth and the affected animals were sacrificed immediately.\nThe date of the last mouse died (the last measurement) was used for analysis of median overall survival and the generation of Kaplan-Meier plots. Survival curves of different treatment groups were compared using log-rank test with Bonferroni's multiple test. All data were analyzed in SPSS version 18.0 (IBM, Armonk, NY, U.S.A.). Prism version 6 (GraphPad Software Inc., San Diego, CA, U.S.A.) was used for graphic presentation."}},
  "data": [
    {"smiles": "Cc1ccc(C(=O)Nc2ccc(CN3CCN(C)CC3)c(C(F)(F)F)c2)cc1C#Cc1cnc2[nH]ncc2c1", "note": "[Compound 23, 3-(2-(1H-pyrazolo[3,4-b]pyridin-5-yl)ethynyl)-4-methyl-N-(4-((4-methylpiperazin-1-yl)methyl)-3-(trifluoromethyl)phenyl)benzamide]", "values": [
      {"measurement": "% Ctrl@10 nM", "setting": "[1]; 10 nM", "value": 5, "unit": "% Ctrl"},
      {"measurement": "% Ctrl@100 nM", "setting": "[1]; 100 nM", "value": 0.6, "unit": "% Ctrl"},
      {"measurement": "Median survival time of mice", "setting": "[2]; vehicle 19 days", "value": 29, "unit": "days"},
      {"measurement": "Prolonged survival time of mice", "setting": "[2]; versus vehicle", "value": 10, "unit": "days"}
    ]}
  ]
}
